Results published in US20030104393A1, “Blood assessment of injury” (priority 2000, published 2003).

System: brain
Test: Genes induced in the brain following kainic acid-induced seizures (microarray)
Type: in vivo, rat
Design: key: NC = No Change
Description: Status epilepticus is produced by intraperitoneally injecting a glutamate analogue/excitotoxin, kainic acid (10 mg/kg i.p.). Animals with kainate-induced seizures are observed following drug administration to ensure that they continue to have complex seizures over a 30 minute period.
All animals are allowed to survive for 24 hours following each treatment. At that time they are deeply anesthetized with ketamine (100 mg/kg) and xylazine (20 mg/kg) given intraperitoneally. Once anesthetized, the chest is opened and a direct cardiac puncture performed with a syringe and 10 cc of blood is aspirated. Immediately following removal of the blood, the animal is decapitated while deeply anesthetized and the brain removed.
One day after hypoxia, status epilepticus, hypoglycemia, ischemic stroke, and hemorrhagic stroke are produced in adult rats, RNA or protein is isolated from the blood cells and from the brains of the animals described in Example 1. The pattern of genes or proteins expressed in the blood cells following each of these types of injury—hypoxia, status epilepticus, hypoglycemia, ischemic stroke, and hemorrhagic stroke is captured on a commercially available microarray (Affymetrix chip). The pattern of gene or protein expression is defined using an expression method, which then forms a genomic or proteomic organ injury database, which is used in assessing injury.
Note that the genes induced in the blood are different from the genes induced in the brain. Therefore, different organs express different genes. In addition, the genes induced by hypoxia in the blood are different from the genes induced by hypoxia in the brain. That is, the same stimulus induces different genes in different organs. Lastly, even though similar genes are induced in the brain by ischemia (stroke) and kainic acid-induced seizures, there are many differences in the gene expression between the two. Therefore, the pattern of gene expression in the brains of ischemic animals is distinctive from the pattern of expression of the kainate animals, and this pattern can be used to diagnose the different conditions of stroke and status epilepticus, even though many of the same genes are induced in the two conditions.
In further support, the following Tables 5 and 6 list those genes induced in the brain following stroke, kainic induced seizures, and hypoxia as compared with untouched controls and sham-operated controls.

**Q.** How did the “Kainic Acid Seizure (fold change)” value (brain, D29769_at bone morphogenic protein-7) turn out when C=C(C)[C@H]1CN[C@H](C(=O)O)[C@H]1CC(=O)O [kainate, kainic acid] was run?
**A.** NC

**Q.** And the “Kainic Acid Seizure (fold change)” value (brain, J03624_at Rat galanin (a neuropeptide) RNA)?
**A.** 3 fold change

**Q.** And the “Kainic Acid Seizure (fold change)” value (brain, L20913_s_at vascular endothelial growth factor form 3 RNA)?
**A.** NC

**Q.** And the “Kainic Acid Seizure (fold change)” value (brain, L32591RNA_g GADD45 RNA)?
**A.** 3 fold change

**Q.** And the “Kainic Acid Seizure (fold change)” value (brain, L46593cds_at small proline-rich protein (spr) gene)?
**A.** 4 fold change

**Q.** What about the “Kainic Acid Seizure (fold change)” value (brain, M55534RNA_s Rat alpha-crystallin b chain RNA) of the same compound?
**A.** 2 fold change

**Q.** What about the “Kainic Acid Seizure (fold change)” value (brain, M60616_at Rat collagenase (UMRCase) RNA) of the same compound?
**A.** NC

**Q.** And the “Kainic Acid Seizure (fold change)” value (brain, M63282_at Rat leucine zipper protein RNA)?
**A.** NC

**Q.** And the “Kainic Acid Seizure (fold change)” value (brain, M90661_at Rattus norvegicus insulin receptor-related receptor-alpha subunit RNA)?
**A.** NC

**Q.** What about the “Kainic Acid Seizure (fold change)” value (brain, RC_AA891041 EST) of the same compound?
**A.** NC

**Q.** And the “Kainic Acid Seizure (fold change)” value (brain, U13396_at protein-tyrosine kinase (JAK2) RNA)?
**A.** NC

**Q.** And the “Kainic Acid Seizure (fold change)” value (brain, U16674_at interleukin-12p40 RNA)?
**A.** NC

**Q.** And the “Kainic Acid Seizure (fold change)” value (brain, U49930_g_at ICE-like cysteine protease (Lice) RNA)?
**A.** 2.7 fold change

**Q.** And the “Kainic Acid Seizure (fold change)” value (brain, U77829RNA_s Rattus norvegicus gas-5 growth arrest homolog NCn-translated RNA sequence)?
**A.** 3.4 fold change

**Q.** What about the “Kainic Acid Seizure (fold change)” value (brain, U88572_at AMPA receptor interacting protein GRIP RNA) of the same compound?
**A.** 3.5 fold change

**Q.** What about the “Kainic Acid Seizure (fold change)” value (brain, U099870_at Vmajor vault protein RNA) of the same compound?
**A.** 2.5 fold change

**Q.** And the “Kainic Acid Seizure (fold change)” value (brain, Y10619cds_at transcriptional regulator, Relax)?
**A.** 3.5 fold change

**Q.** And the “Kainic Acid Seizure (fold change)” value (brain, a30543cds_s_ p-Meta-a RNA for CD44 surface protein from patent WO9117248)?
**A.** 4.4 fold change

**Q.** What about the “Kainic Acid Seizure (fold change)” value (brain, ab005900_at endothelial receptor for oxidized low density) of the same compound?
**A.** NC

**Q.** And the “Kainic Acid Seizure (fold change)” value (brain, af00898_at p58/p45 RNA, alternatively spliced form clone H)?
**A.** 3.3 fold change

**Q.** And the “Kainic Acid Seizure (fold change)” value (brain, af28784cds# glial fibrillary acidic proteins alpha and delta (GFAP) gene)?
**A.** 6.2 fold change

**Q.** What about the “Kainic Acid Seizure (fold change)” value (brain, af030089UTR# Rattus norvegicus activity and neurotransmitter-induced early gene) of the same compound?
**A.** 4 fold change

**Q.** And the “Kainic Acid Seizure (fold change)” value (brain, af036537_at homocysteine respondent protein)?
**A.** NC

**Q.** What about the “Kainic Acid Seizure (fold change)” value (brain, af036537 homocysteine respondent protein HCYP2 RNA) of the same compound?
**A.** NC

**Q.** What about the “Kainic Acid Seizure (fold change)” value (brain, af053362_at Rattus norvegicus death effector domain-containing protein DEFT RNA) of the same compound?
**A.** NC

**Q.** And the “Kainic Acid Seizure (fold change)” value (brain, af074608RNA MHC class I antigen (RT1.EC2) gene)?
**A.** 3 fold change

**Q.** And the “Kainic Acid Seizure (fold change)” value (brain, af083269_at p41-Arc RNA)?
**A.** 3.3 fold change

**Q.** And the “Kainic Acid Seizure (fold change)” value (brain, af083269_g_at p41-Arc RNA)?
**A.** 3.3 fold change

**Q.** What about the “Kainic Acid Seizure (fold change)” value (brain, af086624_s_a serine threonine kinase (pim-3) RNA) of the same compound?
**A.** NC

**Q.** What about the “Kainic Acid Seizure (fold change)” value (brain, af087944RNA monocyte differentiation antigen CD14 gene) of the same compound?
**A.** 2.6 fold change

**Q.** What about the “Kainic Acid Seizure (fold change)” value (brain, af092090_at cp151 RNA) of the same compound?
**A.** 2.7 fold change

**Q.** And the “Kainic Acid Seizure (fold change)” value (brain, aj222813_s_a precursor interleukin 18 (IL-18))?
**A.** 3.8 fold change

**Q.** What about the “Kainic Acid Seizure (fold change)” value (brain, d00913_g_at intercellular adhesion molecule-1) of the same compound?
**A.** NC

**Q.** And the “Kainic Acid Seizure (fold change)” value (brain, d8557s_at RYB-a)?
**A.** 3.5 fold change

**Q.** And the “Kainic Acid Seizure (fold change)” value (brain, d17370_g_at cystathionine gamma-lyase)?
**A.** 3.8 fold change

**Q.** What about the “Kainic Acid Seizure (fold change)” value (brain, d89069_f_at inducible carbonyl reductase) of the same compound?
**A.** NC

**Q.** What about the “Kainic Acid Seizure (fold change)” value (brain, d90404_at cathepsin C) of the same compound?
**A.** 2.8 fold change

**Q.** What about the “Kainic Acid Seizure (fold change)” value (brain, d90404_g_at cathepsin C) of the same compound?
**A.** NC

**Q.** And the “Kainic Acid Seizure (fold change)” value (brain, j00780_at rat preprorelaxin RNA)?
**A.** NC

**Q.** What about the “Kainic Acid Seizure (fold change)” value (brain, j04563_at Rat cAMP phosphodiesterase RNA) of the same compound?
**A.** 5.4 fold change

**Q.** And the “Kainic Acid Seizure (fold change)” value (brain; j04792_at ornithine decarboxylase ODC) gene)?
**A.** 1.7 fold change

**Q.** What about the “Kainic Acid Seizure (fold change)” value (brain, m13979_at Rat brain and all other organ glucose-transporter protein RNA) of the same compound?
**A.** 2.1 fold change

**Q.** What about the “Kainic Acid Seizure (fold change)” value (brain, m18330_at Rat protein kinase C delta subspecies) of the same compound?
**A.** 3.3 fold change

**Q.** And the “Kainic Acid Seizure (fold change)” value (brain, m19257_at Rat cysosolic retinol-binding protein (CRBP) RNA)?
**A.** 4 fold change

**Q.** What about the “Kainic Acid Seizure (fold change)” value (brain, m32062_at Rat Fc-gamma receptor RNA) of the same compound?
**A.** 1.5 fold change

**Q.** What about the “Kainic Acid Seizure (fold change)” value (brain, m34253_g_at Rat-interferon regulatory factor1 (IRF-a) RNA) of the same compound?
**A.** 3 fold change

**Q.** And the “Kainic Acid Seizure (fold change)” value (brain, m60753_s_at catechol-O-methyltransferase RNA)?
**A.** 4.5 fold change

**Q.** What about the “Kainic Acid Seizure (fold change)” value (brain, m63122_at Rat tumor necrosis factor receptor (TNF receptor)) of the same compound?
**A.** 2.8 fold change

**Q.** What about the “Kainic Acid Seizure (fold change)” value (brain, m80633_at Rat adenylyl cyclase type (IV) RNA) of the same compound?
**A.** 5.2 fold change

**Q.** And the “Kainic Acid Seizure (fold change)” value (brain, rc_A1014163 EST)?
**A.** 2.3 fold change
